According to article PMC6658524, “Lysosomal degradation of newly formed insulin granules contributes to β cell failure in diabetes” (Nature Communications, 2019):

Columns and labels:
Test in all cases: biochemical
Parameters in all cases: Eurofins KinaseProfiler panel of 60 kinases, per cent inhibition
Pim-1(h) = target: T1, Pim-1(h) (Homo sapiens, UniProt P11309)
T1 construct: gene PIM1
From the text: (§1) A more detailed account of the discovery, chemistry and biochemical properties of this novel class of selective p38δ inhibitors will be given elsewhere.

AMPKα2(h) = target: T2, AMPKα2(h) (Homo sapiens, UniProt P54646)
T2 construct: gene PRKAA2
From the text: as §1

PKCβII(h) = target: T3, PKCβII(h) (Homo sapiens, UniProt P05771)
T3 construct: gene PRKCB; isoform beta II
From the text: as §1

Met(h) = Met(h) (Homo sapiens, UniProt P08581)
From the text: as §1

ALK(h) = ALK(h) (Homo sapiens, UniProt Q9UM73)
From the text: as §1

Abl(h) = target: T4, Abl(h) (Homo sapiens, UniProt P00519)
T4 construct: gene ABL1
From the text: as §1

PAK4(h) = PAK4(h) (Homo sapiens, UniProt O96013)
From the text: as §1

c-RAF(h) = target: T5, c-RAF(h) (Homo sapiens, UniProt P04049)
T5 construct: gene RAF1
From the text: as §1

PKA(h) = target: T6, PKA(h) (Homo sapiens, UniProt P17612)
T6 construct: gene PRKACA
From the text: as §1

SAPK2a(h) = target: T7, SAPK2a(h) (Homo sapiens, UniProt Q16539)
T7 construct: gene MAPK14
From the text: as §1

CDK9/cyclin T1(h) = CDK9/cyclin T1(h) (Homo sapiens, UniProt P50750)
From the text: as §1

Flt1(h) = Flt1(h) (Homo sapiens, UniProt P17948)
From the text: as §1

cKit(h) = target: T8, cKit(h) (Homo sapiens, UniProt P10721)
T8 construct: gene KIT
From the text: as §1

Lyn(h) = Lyn(h) (Homo sapiens, UniProt P07948)
From the text: as §1

BTK(h) = BTK(h) (Homo sapiens, UniProt Q06187)
From the text: as §1

Rsk1(h) = target: T9, Rsk1(h) (Homo sapiens, UniProt Q15418)
T9 construct: gene RPS6KA1
From the text: as §1

EphA3(h) = EphA3(h) (Homo sapiens, UniProt P29320)
From the text: as §1

Lck(h) activated = Lck(h) activated (Homo sapiens, UniProt P06239)
From the text: as §1

PEK(h) = target: T10, PEK(h) (Homo sapiens, UniProt Q9NZJ5)
T10 construct: gene EIF2AK3
From the text: as §1

cSRC(h) = target: T11, cSRC(h) (Homo sapiens, UniProt P12931)
T11 construct: gene SRC
From the text: as §1

CDK5/p25(h) = target: T12, CDK5/p25(h) (Homo sapiens, UniProt Q00535)
T12 construct: p25
From the text: as §1

mTOR(h) = mTOR(h) (Homo sapiens, UniProt P42345)
From the text: as §1

GSK3α(h) = target: T13, GSK3α(h) (Homo sapiens, UniProt P49840)
T13 construct: gene GSK3A
From the text: as §1

GSK3β(h) = target: T14, GSK3β(h) (Homo sapiens, UniProt P49841)
T14 construct: gene GSK3B
From the text: as §1

T12 sequence (Q00535 whole entry): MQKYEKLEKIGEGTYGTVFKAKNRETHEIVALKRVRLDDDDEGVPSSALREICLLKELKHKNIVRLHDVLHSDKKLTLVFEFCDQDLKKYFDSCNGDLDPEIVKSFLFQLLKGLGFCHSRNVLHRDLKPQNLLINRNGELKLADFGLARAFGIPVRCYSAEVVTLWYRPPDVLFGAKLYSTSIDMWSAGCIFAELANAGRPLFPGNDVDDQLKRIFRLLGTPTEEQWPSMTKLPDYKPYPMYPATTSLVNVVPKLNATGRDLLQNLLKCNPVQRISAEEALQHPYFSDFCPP
T12 sequence (Q15078 whole entry partner): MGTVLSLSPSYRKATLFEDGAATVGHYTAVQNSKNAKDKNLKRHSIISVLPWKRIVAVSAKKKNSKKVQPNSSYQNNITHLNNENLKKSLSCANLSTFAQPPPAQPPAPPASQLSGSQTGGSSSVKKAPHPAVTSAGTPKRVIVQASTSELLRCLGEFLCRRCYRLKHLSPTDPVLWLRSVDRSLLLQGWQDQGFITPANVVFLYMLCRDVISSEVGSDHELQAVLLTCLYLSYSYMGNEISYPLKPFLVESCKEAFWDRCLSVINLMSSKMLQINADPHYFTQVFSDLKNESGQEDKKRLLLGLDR
T11 sequence (P12931 whole entry): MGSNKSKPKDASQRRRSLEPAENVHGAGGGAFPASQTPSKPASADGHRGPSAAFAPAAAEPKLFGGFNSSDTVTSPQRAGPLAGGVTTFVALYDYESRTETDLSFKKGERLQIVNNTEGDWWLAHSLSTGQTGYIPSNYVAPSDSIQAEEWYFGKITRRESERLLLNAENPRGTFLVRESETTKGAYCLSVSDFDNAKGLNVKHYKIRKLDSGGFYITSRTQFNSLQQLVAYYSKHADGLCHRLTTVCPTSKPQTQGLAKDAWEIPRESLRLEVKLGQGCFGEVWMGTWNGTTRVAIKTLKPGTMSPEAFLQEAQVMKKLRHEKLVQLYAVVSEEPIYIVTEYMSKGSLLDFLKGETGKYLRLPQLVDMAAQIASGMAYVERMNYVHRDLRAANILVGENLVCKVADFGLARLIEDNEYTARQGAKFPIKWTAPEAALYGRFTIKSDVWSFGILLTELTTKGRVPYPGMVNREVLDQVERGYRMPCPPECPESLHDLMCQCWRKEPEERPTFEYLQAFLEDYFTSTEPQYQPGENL
Chain of Met(h) (P08581 whole entry): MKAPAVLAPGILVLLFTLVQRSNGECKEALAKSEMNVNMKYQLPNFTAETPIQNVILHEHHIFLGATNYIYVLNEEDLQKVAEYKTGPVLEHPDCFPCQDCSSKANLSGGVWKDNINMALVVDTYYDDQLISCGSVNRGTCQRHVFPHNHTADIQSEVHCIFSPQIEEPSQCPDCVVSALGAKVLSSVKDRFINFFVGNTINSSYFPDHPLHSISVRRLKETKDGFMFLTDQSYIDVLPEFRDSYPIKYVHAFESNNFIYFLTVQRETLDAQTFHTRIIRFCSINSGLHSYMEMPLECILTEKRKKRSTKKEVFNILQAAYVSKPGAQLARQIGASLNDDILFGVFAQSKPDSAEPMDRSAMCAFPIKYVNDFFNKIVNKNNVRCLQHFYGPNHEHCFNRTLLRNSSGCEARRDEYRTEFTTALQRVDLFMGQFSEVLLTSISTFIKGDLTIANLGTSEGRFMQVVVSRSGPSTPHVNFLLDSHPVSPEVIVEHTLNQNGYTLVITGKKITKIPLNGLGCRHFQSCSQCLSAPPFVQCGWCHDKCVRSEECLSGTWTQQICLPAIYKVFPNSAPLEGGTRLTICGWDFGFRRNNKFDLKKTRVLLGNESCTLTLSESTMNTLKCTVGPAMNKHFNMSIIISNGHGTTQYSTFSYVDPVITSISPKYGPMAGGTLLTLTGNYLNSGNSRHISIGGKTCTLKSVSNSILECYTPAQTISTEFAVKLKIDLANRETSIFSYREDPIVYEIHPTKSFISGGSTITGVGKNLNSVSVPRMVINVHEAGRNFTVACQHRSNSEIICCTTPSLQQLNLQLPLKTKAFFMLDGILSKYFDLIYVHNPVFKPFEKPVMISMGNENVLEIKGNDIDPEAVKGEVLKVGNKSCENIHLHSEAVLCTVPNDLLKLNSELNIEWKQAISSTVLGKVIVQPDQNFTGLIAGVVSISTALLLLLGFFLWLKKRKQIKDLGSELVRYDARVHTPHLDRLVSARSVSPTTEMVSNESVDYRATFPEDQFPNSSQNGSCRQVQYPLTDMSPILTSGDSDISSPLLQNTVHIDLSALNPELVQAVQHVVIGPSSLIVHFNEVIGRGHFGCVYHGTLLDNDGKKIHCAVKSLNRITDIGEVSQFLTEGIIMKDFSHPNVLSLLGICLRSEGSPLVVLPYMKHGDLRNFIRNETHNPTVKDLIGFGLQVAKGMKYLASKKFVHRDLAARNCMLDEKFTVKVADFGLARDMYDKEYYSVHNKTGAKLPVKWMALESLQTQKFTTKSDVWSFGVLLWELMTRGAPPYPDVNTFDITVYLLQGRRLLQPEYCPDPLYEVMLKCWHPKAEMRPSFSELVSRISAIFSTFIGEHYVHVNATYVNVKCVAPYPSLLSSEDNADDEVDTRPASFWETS
Chain of Lyn(h) (P07948 whole entry): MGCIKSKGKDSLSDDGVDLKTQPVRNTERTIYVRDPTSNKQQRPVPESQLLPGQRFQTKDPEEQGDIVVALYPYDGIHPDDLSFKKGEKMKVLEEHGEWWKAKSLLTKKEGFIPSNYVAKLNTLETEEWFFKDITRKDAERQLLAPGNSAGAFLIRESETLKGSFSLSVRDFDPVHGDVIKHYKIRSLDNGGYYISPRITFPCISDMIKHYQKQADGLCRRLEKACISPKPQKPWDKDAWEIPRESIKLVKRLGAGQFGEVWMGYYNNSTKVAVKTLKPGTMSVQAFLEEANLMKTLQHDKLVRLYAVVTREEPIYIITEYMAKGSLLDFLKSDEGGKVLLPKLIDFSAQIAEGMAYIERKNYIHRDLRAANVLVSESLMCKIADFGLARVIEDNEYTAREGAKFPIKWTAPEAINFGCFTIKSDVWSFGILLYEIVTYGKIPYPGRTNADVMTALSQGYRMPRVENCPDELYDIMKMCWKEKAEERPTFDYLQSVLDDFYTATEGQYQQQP
T2 sequence (P54646 whole entry): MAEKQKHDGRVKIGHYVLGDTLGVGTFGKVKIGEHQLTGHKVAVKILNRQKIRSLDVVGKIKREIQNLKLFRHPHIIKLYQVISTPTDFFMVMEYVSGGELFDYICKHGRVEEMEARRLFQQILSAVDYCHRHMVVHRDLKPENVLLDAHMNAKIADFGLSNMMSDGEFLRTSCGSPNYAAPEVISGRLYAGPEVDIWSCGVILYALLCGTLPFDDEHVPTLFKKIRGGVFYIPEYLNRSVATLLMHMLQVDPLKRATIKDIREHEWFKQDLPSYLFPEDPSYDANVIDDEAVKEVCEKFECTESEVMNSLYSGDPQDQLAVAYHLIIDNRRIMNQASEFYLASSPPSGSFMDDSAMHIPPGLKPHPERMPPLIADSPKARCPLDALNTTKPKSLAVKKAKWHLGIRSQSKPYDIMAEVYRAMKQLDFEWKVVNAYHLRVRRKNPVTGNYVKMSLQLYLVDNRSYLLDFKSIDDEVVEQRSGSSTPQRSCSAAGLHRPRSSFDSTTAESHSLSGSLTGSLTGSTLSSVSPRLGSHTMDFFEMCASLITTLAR
T2 sequence (P54619 whole entry partner): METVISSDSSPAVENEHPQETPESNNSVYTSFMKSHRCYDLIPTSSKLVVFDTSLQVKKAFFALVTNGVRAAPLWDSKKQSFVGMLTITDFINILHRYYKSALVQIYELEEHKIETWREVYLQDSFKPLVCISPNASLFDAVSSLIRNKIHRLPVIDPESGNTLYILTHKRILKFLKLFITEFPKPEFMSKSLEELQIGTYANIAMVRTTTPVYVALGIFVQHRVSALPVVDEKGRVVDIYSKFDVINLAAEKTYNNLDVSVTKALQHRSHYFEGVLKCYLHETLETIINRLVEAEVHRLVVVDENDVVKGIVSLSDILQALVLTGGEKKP
T2 sequence (Q9Y478 whole entry partner): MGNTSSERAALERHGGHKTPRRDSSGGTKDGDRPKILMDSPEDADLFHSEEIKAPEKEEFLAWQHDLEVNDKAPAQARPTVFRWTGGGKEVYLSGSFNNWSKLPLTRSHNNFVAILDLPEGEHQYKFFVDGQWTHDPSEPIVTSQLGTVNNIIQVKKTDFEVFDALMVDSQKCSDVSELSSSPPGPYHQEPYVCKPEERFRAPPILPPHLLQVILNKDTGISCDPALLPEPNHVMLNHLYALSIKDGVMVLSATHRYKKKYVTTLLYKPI
Chain of BTK(h) (Q06187 whole entry): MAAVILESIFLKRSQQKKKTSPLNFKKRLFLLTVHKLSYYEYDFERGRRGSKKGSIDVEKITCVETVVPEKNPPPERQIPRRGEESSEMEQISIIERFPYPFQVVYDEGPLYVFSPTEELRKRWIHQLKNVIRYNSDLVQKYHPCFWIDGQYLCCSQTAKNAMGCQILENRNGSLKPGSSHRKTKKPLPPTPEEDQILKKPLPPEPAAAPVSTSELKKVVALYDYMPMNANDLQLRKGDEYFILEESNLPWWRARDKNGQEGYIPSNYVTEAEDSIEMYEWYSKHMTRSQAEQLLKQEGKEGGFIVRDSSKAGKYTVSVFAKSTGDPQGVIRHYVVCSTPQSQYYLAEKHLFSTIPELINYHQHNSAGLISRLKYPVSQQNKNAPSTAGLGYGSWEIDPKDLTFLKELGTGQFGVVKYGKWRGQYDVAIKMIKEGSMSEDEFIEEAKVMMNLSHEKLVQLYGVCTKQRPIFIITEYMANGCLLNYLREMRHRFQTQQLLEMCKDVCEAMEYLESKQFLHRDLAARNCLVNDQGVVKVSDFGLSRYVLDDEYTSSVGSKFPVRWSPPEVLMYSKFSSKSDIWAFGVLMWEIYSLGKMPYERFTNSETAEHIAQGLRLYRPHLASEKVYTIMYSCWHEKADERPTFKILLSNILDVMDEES

## CCN1CCOc2nc(N3CCOCC3)nc(-c3ccc(NC(=O)OC)cc3)c2C1=O [Compound A]
Pim-1(h)
  inhibition at 1 µM: -6%
  inhibition at 10 µM: -7%
AMPKα2(h)
  inhibition at 1 µM: -5%
  inhibition at 10 µM: 5%
PKCβII(h)
  inhibition at 1 µM: 0%
  inhibition at 10 µM: 1%
Met(h)
  inhibition at 1 µM: -16%
  inhibition at 10 µM: -7%
ALK(h)
  inhibition at 1 µM: 4%
  inhibition at 10 µM: 0%
Abl(h)
  inhibition at 1 µM: 6%
  inhibition at 10 µM: 8%
PAK4(h)
  inhibition at 1 µM: -2%
  inhibition at 10 µM: 4%
c-RAF(h)
  inhibition at 1 µM: -5%
  inhibition at 10 µM: 2%
PKA(h)
  inhibition at 1 µM: -8%
  inhibition at 10 µM: -22%
SAPK2a(h)
  inhibition at 1 µM: -16%
  inhibition at 10 µM: 9%
CDK9/cyclin T1(h)
  inhibition at 1 µM: -16%
  inhibition at 10 µM: 3%
Flt1(h)
  inhibition at 1 µM: -30%
  inhibition at 10 µM: -28%
cKit(h)
  inhibition at 1 µM: 4%
  inhibition at 10 µM: 6%
Lyn(h)
  inhibition at 1 µM: -2%
  inhibition at 10 µM: 13%
BTK(h)
  inhibition at 1 µM: -1%
  inhibition at 10 µM: 0%
Rsk1(h)
  inhibition at 1 µM: -11%
  inhibition at 10 µM: 5%
EphA3(h)
  inhibition at 1 µM: 8%
  inhibition at 10 µM: 12%
Lck(h) activated
  inhibition at 1 µM: -7%
  inhibition at 10 µM: 13%
PEK(h)
  inhibition at 1 µM: -12%
  inhibition at 10 µM: -11%
cSRC(h)
  inhibition at 1 µM: -9%
  inhibition at 10 µM: -12%
CDK5/p25(h)
  inhibition at 1 µM: -2%
  inhibition at 10 µM: -2%
mTOR(h)
  inhibition at 1 µM: -1%
GSK3α(h)
  inhibition at 1 µM: -9%
  inhibition at 10 µM: -7%
GSK3β(h)
  inhibition at 1 µM: 1%
  inhibition at 10 µM: 12%
